Assay results: PMC10298626 (International Journal of Molecular Sciences, 2023)
Marks after values point to notes of the source that are not given here.

Legend:
[1] = tested on: LPS-stimulated RAW264.7 cells; experiment: NO production (Griess reagent) in LPS-stimulated RAW264.7 cells; type: cell-based, Mouse; conditions: for NO production, Average / NO production, Average (μM): then LPS (500 ng/mL) 20 h, LPS alone 25.9, control 3.1; for Anti-inflammatory effect (inhibition of NO secretion), in words: 20, 40, and 80 μM, compared with LPS-only treatment
Protocol: A high concentration of NO promotes the synthesis of inflammatory mediators, leading to an inflammatory response, and has been reported to be a cause of various immune diseases. Therefore, this study was conducted to investigate the effect of coumarin derivatives on the production of NO induced by LPS stimulation in RAW264.7 cells. The cells were treated with coumarin derivatives at concentrations of 20, 40, and 80 μM for 2 h. Then, the cells were treated with LPS. After 20 h, the culture supernatant was recovered, and the amount of NO was measured. […] The anti-inflammatory activity of these derivatives depended on the position of the substituted group rather than the electron density of the substituted group.
The Griess reagent was used to measure NO production. RAW264.7 cells were seeded into a 96-well plate and cultured for 24 h. The cells were treated with 20, 40, and 80 μM of coumarin derivatives, cultured for 2 h, and then cultured with LPS (500 ng/mL) for 20 h. The same amount of cell supernatant and Griess reagent were used for the reaction, and absorbance was measured at 540 nm.

in vitro = type: cell-based; conditions: mouse, RAW264.7 cells, then LPS (500 ng/mL) 20 h, read-out: Cell viability, Average (%); for viability at 22 h, 20 μM: 20 μM for 2 h; for viability at 22 h, 40 μM: 40 μM for 2 h; for viability at 22 h, 80 μM: 80 μM for 2 h
Protocol: To investigate the anti-inflammatory activity of coumarin derivatives, cell viability was analyzed by treating RAW264.7 cells with 23 types of coumarin derivatives at concentrations of 20, 40, and 80 μM for 2 h and with LPS for 20 h.
Mouse macrophage RAW264.7 cells were purchased from the Korea Cell Line Bank (Seoul, Republic of Korea) and cultured in Dulbecco’s Modified Eagle Medium (Corning, NY, USA) containing 10% fetal bovine serum and 1% penicillin/streptomycin at 37 °C and 5% CO2. The medium was changed every 2 days and subcultured when the cells grew > 80%.
EZ-Cytox cell viability assay kit (Dogen, Suwon, Republic of Korea) was used to measure cell viability according to the manufacturer’s instructions. RAW264.7 cells were seeded into a 96-well plate (1 × 10^5 cells/well) and treated with coumarin derivatives at concentrations of 20, 40, and 80 μM. After 2 h, the cells were treated with LPS (500 ng/mL) and cultured for 24 h in a 37 °C, 5% CO2 incubator. The culture supernatant was treated with 10% EZ-Cytox reagent, and a microplate reader was used to measure the absorbance at 450 nm.

SMILES | NO production, Average ([1]; 20 μM for 2 h) [µM] | NO production, Average ([1]; 40 μM for 2 h) [µM] | NO production, Average ([1]; 80 μM for 2 h) [µM] | Anti-inflammatory effect (inhibition of NO secretion), in words [1] | viability at 22 h, 20 μM (in vitro) [%] | viability at 22 h, 40 μM (in vitro) [%] | viability at 22 h, 80 μM (in vitro) [%] | NO production, Average (μM) ([1]; 40 μM for 2 h) | NO production, Average (μM) ([1]; 80 μM for 2 h)
N#CC1=C(N)Oc2c(c(=O)oc3ccccc23)C1c1ccccc1F (centres unmarked) [Coumarin derivative 1] | 29.50 | 29.82 | 28.71 | almost no anti-inflammatory effect | 90.4 | 96 | 109 | – | –
N#CC1=C(N)Oc2c(c(=O)oc3ccccc23)C1c1ccc(F)cc1 (centres unmarked) [Coumarin derivative 3] | 27.60 | 28.86 | 22.84 | – | 95.4 | 101 | 110 | – | –
N#CC1=C(N)Oc2c(c(=O)oc3ccccc23)C1c1ccccc1C(F)(F)F (centres unmarked) [Coumarin derivative 4] | 15.71 | – | – | – | 79.9 | 91.2 | 88.7 | 17.45 *** μM | 18.09 *** μM
N#CC1=C(N)Oc2c(c(=O)oc3ccccc23)C1c1cccc(C(F)(F)F)c1 (centres unmarked) [Coumarin derivative 5] | 30.77 | 28.71 | 25.38 | almost no anti-inflammatory effects | 86.8 | 110 | 113 | – | –
N#CC1=C(N)Oc2c(c(=O)oc3ccccc23)C1c1ccc(C(F)(F)F)cc1 (centres unmarked) [Coumarin derivative 6] | 30.92 | 26.49 | – | weak anti-inflammatory effects at high concentrations | 98.7 | 111 | 111 | – | 16.82 *** μM
N#CC1=C(N)Oc2c(c(=O)oc3ccccc23)C1c1ccccc1Cl (centres unmarked) [Coumarin derivative 7] | 32.83 | 29.66 | 27.60 | – | 106 | 121 | 124 | – | –
N#CC1=C(N)Oc2c(c(=O)oc3ccccc23)C1c1ccc(Cl)cc1 (centres unmarked) [Coumarin derivative 8] | 32.19 | 24.11 | – | – | 103 | 107 | 93.5 | – | 10.64 *** μM
Cc1ccccc1C1C(C#N)=C(N)Oc2c1c(=O)oc1ccccc21 (centres unmarked) [Coumarin derivative 9] | 23.27 | 24.10 | 21.32 | almost no anti-inflammatory effect | 118 | 111 | 112 | – | –
Cc1cccc(C2C(C#N)=C(N)Oc3c2c(=O)oc2ccccc32)c1 (centres unmarked) [Coumarin derivative 10] | 24.24 | – | – | inhibited NO secretion in a concentration-dependent manner | 111 | 113 | 104 | 20.34 ** μM | 9.21 *** μM
Cc1ccc(C2C(C#N)=C(N)Oc3c2c(=O)oc2ccccc32)cc1 (centres unmarked) [Coumarin derivative 11] | 24.80 | 26.47 | 26.19 | – | 113 | 108 | 122 | – | –
N#CC1=C(N)Oc2c(c(=O)oc3ccccc23)C1c1ccccc1OC(F)(F)F (centres unmarked) [Coumarin derivative 12] | 16.58 | – | – | showed anti-inflammatory effects | 99.2 | 102 | 106 | 17.28 *** μM | 17.98 *** μM
N#CC1=C(N)Oc2c(c(=O)oc3ccccc23)C1c1cccc(OC(F)(F)F)c1 (centres unmarked) [Coumarin derivative 13] | 27.17 | 26.33 | 24.94 | almost no anti-inflammatory effects | 114 | 118 | 112 | – | –
N#CC1=C(N)Oc2c(c(=O)oc3ccccc23)C1c1ccc(OC(F)(F)F)cc1 (centres unmarked) [Coumarin derivative 14] | 27.72 | 24.52 | – | weak anti-inflammatory effects at high concentrations | 110 | 95.8 | 102 | – | 16.31 *** μM
COc1ccccc1C1C(C#N)=C(N)Oc2c1c(=O)oc1ccccc21 (centres unmarked) [Coumarin derivative 15] | 26.33 | 22.71 | – | showed anti-inflammatory effects | 109 | 112 | 114 | – | 19.37 ** μM
COc1cccc(C2C(C#N)=C(N)Oc3c2c(=O)oc2ccccc32)c1 (centres unmarked) [Coumarin derivative 16] | 27.58 | 26.33 | – | – | 107 | 102 | 96.3 | – | 16.17 *** μM
COc1ccc(C2C(C#N)=C(N)Oc3c2c(=O)oc2ccccc32)cc1 (centres unmarked) [Coumarin derivative 17] | 28.68 | 26.11 | – | weak anti-inflammatory effects at high concentrations | 122 | 122 | 137 | – | 20.16 ** μM
N#CC1=C(N)Oc2c(c(=O)oc3ccccc23)C1c1ccccc1Br (centres unmarked) [Coumarin derivative 18] | 28.03 | 27.87 | 25.95 | almost no anti-inflammatory effect | 129 | 130 | 138 | – | –
N#CC1=C(N)Oc2c(c(=O)oc3ccccc23)C1c1cccc(Br)c1 (centres unmarked) [Coumarin derivative 19] | 27.07 | 17.76 | – | inhibited NO secretion in a concentration-dependent manner | 117 | 119 | 120 | – | 10.05 *** μM
N#CC1=C(N)Oc2c(c(=O)oc3ccccc23)C1c1ccc(Br)cc1 (centres unmarked) [Coumarin derivative 20] | 31.89 | 30.12 | – | – | 114 | 124 | 135 | – | 19.52 ** μM
N#CC1=C(N)Oc2c(c(=O)oc3ccccc23)C1c1cccc(C#N)c1 (centres unmarked) [Coumarin derivative 21] | 28.68 | 22.73 | – | weak anti-inflammatory effects | 131 | 122 | 102 | – | 11.97 *** μM
N#CC1=C(N)Oc2c(c(=O)oc3ccccc23)C1c1ccc(C#N)cc1 (centres unmarked) [Coumarin derivative 22] | 31.41 | 28.84 | 22.89 | weak anti-inflammatory effects at high concentrations | 120 | 122 | 114 | – | –
